Measured values as given in ChEMBL document CHEMBL1201862, “PubChem BioAssay data set” (2004).
Activity calls are given as the source filed them.

Assays:
[1] = biological target: T1, Corticotropin-releasing factor receptor 2/Corticotropin-releasing factor-binding protein (Homo sapiens, UniProt P24387+Q13324); assay: Dose Response confirmation of uHTS hits for small molecule antagonists of the CRF-binding protein and CRF-R2 receptor complex.; type: functional; details: read-out: IC50_Mean
T1 sequence (Q13324 whole entry): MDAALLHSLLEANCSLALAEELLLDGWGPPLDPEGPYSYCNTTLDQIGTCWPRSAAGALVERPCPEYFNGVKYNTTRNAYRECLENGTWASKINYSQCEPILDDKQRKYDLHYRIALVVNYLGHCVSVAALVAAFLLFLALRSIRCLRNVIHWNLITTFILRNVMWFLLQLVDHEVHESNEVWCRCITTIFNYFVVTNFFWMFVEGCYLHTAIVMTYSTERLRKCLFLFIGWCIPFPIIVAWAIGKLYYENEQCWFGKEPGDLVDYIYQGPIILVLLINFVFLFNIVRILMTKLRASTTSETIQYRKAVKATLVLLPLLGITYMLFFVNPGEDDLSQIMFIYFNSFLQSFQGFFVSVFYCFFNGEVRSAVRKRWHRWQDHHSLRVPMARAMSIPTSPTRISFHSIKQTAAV
T1 sequence (P24387 whole entry): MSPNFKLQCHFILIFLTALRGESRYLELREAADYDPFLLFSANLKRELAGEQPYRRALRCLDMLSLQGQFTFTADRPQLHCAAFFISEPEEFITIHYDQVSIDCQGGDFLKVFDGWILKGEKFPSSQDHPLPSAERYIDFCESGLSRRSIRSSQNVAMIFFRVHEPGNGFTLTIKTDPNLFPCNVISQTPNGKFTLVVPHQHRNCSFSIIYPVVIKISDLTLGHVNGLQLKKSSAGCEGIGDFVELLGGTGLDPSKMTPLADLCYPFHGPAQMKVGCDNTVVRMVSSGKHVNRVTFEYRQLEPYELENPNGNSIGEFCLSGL

[2] = biological target: T1, Corticotropin-releasing factor receptor 2/Corticotropin-releasing factor-binding protein; assay: activators of CRF receptor 2 with binding protein – uHTS hits, confirmation (AID 602473); type: functional; details: read-out: EC50_Mean
[3] = blockers of CRF-binding protein–CRF-R2 complex – cell-based, uHTS hits, 384-well, dose response (AID 651639); type: functional, Homo sapiens; details: read-out: IC50_Mean
[4] = test system: HEK293; assay: cells; type: functional, cell-based; details: Homo sapiens
[5] = biological target: T2, Nuclear receptor subfamily 0 group B member 1 (Homo sapiens, UniProt P51843); assay: Luminescence-based cell-based high throughput dose response assay for inhibitors of the orphan nuclear receptor subfamily 0, group B, member 1 (DAX1; NR0B1). [Related pubchem assays (depositor defined):AID504766, AID504790]; type: functional
T2 sequence (P51843 whole entry): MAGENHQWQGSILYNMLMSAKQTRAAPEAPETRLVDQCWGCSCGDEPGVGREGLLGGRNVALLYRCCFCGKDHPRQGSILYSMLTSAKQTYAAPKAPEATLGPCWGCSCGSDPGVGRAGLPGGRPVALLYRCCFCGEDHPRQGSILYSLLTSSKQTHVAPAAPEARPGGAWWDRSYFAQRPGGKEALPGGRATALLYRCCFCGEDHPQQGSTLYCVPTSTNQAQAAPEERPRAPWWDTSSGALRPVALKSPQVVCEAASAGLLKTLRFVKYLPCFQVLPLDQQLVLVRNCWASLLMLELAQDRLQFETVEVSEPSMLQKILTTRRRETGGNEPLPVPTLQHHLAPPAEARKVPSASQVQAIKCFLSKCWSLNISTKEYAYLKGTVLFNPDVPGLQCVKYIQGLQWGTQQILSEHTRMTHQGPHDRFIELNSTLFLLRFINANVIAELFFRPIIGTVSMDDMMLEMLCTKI

[6] = biological target: T3, Caspase-3 (Homo sapiens, UniProt P42574); type: functional;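 note: Dose-response selectivity test against caspase-3 for candidate inhibitors of sentrin-specific proteases (SENPs)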
T3 sequence (P42574 whole entry): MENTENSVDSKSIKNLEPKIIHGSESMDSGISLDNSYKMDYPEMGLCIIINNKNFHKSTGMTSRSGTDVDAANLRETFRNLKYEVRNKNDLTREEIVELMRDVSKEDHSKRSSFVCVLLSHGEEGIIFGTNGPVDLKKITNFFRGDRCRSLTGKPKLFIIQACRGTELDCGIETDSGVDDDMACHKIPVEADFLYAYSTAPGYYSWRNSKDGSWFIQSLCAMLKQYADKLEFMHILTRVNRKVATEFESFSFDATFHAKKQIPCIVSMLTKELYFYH

[7] = biological target: T4, Sentrin-specific protease 7 (Homo sapiens, UniProt Q9BQF6); type: functional;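 note: Luminescence-based dose-response confirmation of ultra-high-throughput screening hits, measuring inhibition of SENP7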
T4 sequence (Q9BQF6 whole entry): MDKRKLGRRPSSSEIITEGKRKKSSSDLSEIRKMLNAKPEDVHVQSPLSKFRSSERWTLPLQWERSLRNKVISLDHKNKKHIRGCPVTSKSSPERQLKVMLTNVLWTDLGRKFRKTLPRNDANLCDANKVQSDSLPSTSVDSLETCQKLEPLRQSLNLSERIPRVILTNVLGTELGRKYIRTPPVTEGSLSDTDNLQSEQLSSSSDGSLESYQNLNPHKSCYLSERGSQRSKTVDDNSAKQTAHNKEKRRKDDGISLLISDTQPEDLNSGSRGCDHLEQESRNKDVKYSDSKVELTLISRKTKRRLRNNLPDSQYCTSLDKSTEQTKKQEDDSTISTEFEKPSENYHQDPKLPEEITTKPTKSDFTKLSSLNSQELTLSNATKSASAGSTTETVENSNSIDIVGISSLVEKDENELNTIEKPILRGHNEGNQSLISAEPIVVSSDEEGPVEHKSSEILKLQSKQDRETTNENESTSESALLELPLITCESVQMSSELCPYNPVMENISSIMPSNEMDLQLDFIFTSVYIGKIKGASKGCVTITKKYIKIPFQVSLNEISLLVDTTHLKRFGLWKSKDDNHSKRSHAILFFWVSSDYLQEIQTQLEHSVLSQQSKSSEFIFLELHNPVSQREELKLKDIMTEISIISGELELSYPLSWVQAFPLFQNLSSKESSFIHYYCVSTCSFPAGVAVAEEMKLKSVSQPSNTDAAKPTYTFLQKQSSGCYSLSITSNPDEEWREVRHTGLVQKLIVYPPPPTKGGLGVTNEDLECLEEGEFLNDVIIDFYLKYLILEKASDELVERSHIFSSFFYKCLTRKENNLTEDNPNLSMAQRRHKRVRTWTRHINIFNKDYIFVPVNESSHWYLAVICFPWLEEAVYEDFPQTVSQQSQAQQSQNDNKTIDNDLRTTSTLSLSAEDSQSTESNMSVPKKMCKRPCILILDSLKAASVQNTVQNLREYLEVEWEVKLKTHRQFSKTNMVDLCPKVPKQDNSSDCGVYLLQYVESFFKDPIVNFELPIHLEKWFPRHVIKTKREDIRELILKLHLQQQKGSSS

[8] = biological target: T5, Sentrin-specific protease 6 (Homo sapiens, UniProt Q9GZR1); type: functional;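 note: Luminescence-based dose-response confirmatory assay of SENP6 inhibition, following up an ultra-high-throughput screen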
T5 sequence (Q9GZR1 whole entry): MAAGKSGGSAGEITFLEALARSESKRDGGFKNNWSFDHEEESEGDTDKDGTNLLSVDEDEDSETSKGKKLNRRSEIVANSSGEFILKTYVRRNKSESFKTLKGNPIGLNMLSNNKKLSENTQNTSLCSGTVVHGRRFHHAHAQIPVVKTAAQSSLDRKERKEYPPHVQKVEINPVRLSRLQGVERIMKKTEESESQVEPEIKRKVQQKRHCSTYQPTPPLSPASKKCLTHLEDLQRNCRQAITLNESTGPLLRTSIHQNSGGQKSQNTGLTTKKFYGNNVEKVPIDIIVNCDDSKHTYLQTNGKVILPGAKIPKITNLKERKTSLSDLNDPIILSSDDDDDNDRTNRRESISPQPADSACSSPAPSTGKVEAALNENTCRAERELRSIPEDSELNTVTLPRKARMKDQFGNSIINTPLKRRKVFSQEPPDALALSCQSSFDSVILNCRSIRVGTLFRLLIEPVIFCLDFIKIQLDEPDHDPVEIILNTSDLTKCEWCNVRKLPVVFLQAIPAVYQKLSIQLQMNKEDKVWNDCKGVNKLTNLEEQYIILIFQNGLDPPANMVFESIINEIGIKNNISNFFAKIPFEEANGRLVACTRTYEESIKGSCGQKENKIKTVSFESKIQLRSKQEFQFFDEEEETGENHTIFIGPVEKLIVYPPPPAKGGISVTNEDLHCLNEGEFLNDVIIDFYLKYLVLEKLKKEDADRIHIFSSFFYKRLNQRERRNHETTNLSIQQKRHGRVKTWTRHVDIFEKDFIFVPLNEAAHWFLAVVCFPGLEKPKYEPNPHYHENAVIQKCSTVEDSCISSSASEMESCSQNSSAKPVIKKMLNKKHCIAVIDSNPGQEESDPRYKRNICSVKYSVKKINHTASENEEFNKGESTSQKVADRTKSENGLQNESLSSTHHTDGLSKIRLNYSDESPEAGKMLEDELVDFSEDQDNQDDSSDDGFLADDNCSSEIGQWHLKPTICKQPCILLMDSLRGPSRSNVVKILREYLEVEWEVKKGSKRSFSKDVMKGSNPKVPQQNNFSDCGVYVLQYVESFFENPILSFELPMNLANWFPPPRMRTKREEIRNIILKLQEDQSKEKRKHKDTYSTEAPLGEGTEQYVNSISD

[9] = biological target: T6, Sentrin-specific protease 8 (Homo sapiens, UniProt Q96LD8); type: functional;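 note: luminescence read-out of SENP8 inhibition, dose-response confirmation following an ultra-high-throughput screen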
T6 sequence (Q96LD8 whole entry): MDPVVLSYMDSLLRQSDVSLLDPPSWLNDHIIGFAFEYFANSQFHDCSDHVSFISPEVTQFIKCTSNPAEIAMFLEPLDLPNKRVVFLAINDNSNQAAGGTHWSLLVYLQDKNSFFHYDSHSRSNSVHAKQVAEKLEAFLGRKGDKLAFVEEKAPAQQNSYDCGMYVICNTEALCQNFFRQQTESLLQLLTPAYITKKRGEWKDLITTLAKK

[10] = inhibition of ARNT PAS-B/TACC3 complex formation – biochemical, AlphaScreen, cherry-picked samples, confirmation (AID 651703); type: functional, Homo sapiens;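 note: His-tagged ARNT PAS-B domain paired with GST-TACC3 E629A dimer coactivator fragment; potency of inhibitors that break up the complex and lower AlphaScreen signal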
[11] = viability of PTEN-deleted HCT116 cells – cell-based, HCT116 PTEN knockout, dose response (AID 1047); type: functional;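 note: HCT116 colon tumor cells with PTEN knocked out; cells exposed to compound for 60 hours before readout; potency for loss of cell viability measured by luminescence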
[12] = viability of HCT116 lacking mutant beta-catenin – cell-based, human colon tumor, dose response (AID 1045); type: functional;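 note: HCT116 colon tumor cells with beta catenin knocked out; cells exposed to compound for 60 hours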
[13] = biological target: Large T antigen (Simian virus 40, UniProt P03070); type: functional, Betapolyomavirus macacae;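 note: Confirmatory-stage PubChem screen for compounds that inhibit SV40 T antigen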
[14] = biological target: T7, Rac GTPase-activating protein 1 (Homo sapiens, UniProt Q9H0H5); assay: blockers of MgcRacGAP-driven Rac1 GTP hydrolysis – biochemical, ADP Hunter fluorescence, primary and confirmatory, confirmation (AID 624330); type: functional
T7 sequence (Q9H0H5 whole entry): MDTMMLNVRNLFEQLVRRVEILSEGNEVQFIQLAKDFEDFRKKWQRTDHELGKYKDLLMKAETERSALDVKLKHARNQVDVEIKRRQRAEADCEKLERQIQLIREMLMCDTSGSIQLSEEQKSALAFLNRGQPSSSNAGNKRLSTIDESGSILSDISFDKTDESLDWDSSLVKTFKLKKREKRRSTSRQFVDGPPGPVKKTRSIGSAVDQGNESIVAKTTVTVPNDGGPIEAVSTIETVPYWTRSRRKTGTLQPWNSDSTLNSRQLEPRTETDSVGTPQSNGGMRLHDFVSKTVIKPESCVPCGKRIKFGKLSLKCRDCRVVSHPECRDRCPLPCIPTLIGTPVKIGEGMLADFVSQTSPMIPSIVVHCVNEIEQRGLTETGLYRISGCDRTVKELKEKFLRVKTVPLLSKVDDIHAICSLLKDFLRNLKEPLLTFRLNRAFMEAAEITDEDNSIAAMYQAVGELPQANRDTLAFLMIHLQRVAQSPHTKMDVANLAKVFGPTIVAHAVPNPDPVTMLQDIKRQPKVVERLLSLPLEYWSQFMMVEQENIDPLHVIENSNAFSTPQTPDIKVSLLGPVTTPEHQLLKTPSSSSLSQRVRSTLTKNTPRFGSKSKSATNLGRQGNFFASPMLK

Sequence of Large T antigen (P03070 whole entry): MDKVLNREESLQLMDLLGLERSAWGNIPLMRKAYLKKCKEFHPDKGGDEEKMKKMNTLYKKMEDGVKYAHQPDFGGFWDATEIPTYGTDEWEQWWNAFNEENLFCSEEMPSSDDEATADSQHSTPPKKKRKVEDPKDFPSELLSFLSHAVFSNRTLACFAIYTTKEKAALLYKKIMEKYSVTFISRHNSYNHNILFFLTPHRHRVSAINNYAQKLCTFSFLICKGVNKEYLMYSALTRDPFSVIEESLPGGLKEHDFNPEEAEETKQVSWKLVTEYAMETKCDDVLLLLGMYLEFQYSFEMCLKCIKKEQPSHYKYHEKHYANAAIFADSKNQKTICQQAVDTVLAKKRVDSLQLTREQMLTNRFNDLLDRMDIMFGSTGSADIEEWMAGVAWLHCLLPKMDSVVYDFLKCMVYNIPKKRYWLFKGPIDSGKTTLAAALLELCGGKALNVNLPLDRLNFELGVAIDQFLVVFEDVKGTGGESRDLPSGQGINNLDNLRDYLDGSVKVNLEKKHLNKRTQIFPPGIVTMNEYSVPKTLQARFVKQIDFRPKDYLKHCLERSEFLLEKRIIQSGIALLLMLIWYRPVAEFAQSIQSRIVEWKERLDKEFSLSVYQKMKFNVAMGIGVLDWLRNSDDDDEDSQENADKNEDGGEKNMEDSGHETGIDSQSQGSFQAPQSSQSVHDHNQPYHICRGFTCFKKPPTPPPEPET

IC50 [6]	IC50 [7]	IC50 [8]	Compound	IC50 [4]	IC50 [5]	IC50 [9]	further results
17.7 µM (active)	2.96 µM (active)	4.35 µM (active)	COC(=O)c1sc(-c2ccc(Cl)cc2)cc1N	–	–	67.1 µM (active)	–
29.8 µM (active)	4.19 µM (active)	12.8 µM (active)	C(=N\Nc1nc(-c2ccccc2)cs1)/c1cccs1	–	–	31.6 µM (active)	–

More lines, now with the values behind:

Compound	IC50 [6]	IC50 [7]	IC50 [8]	IC50 [4]	IC50 [5]	IC50 [9]	further results
O=C(CCCCn1c(=O)c2ccccc2n(Cc2ccc(F)cc2Cl)c1=O)NCc1ccco1	–	–	–	–	–	–	IC50 [1]: 19.4 µM (active); EC50 [2]: > 53 µM (inactive); IC50 [3]: > 20 µM (inactive)
COc1ccc(N2CCN(C(=O)C3CCN(S(=O)(=O)c4ccc(C)cc4)CC3)CC2)cc1	–	–	–	> 67.5 µM (inactive)	> 67.5 µM (inactive)	–	–
Cc1ccc(NC(=O)c2ccccc2NS(=O)(=O)c2ccc(F)cc2)cc1S(=O)(=O)N1CCCCC1	–	–	–	–	–	–	IC50 [1]: 2.59 µM (active); EC50 [2]: 4.33 µM (active); IC50 [3]: 6.13 µM (active)
CN(Cc1ccccc1Cl)C(=O)CCNC(=O)c1ccco1	–	–	–	> 67.5 µM (inactive)	> 67.5 µM (inactive)	–	–
CCC[C@H]1CN(c2ccccc2)C(=O)[C@@H]1CC(=O)Nc1ccc(Br)cc1	–	–	–	> 67.5 µM (inactive)	> 67.5 µM (inactive)	–	–
O=C(Nc1ccc2c(c1)[C@@H]1C[C@H](CC(=O)N3CCc4ccccc4C3)O[C@@H](CO)[C@@H]1O2)c1ccc2c(c1)OCO2	–	–	–	–	–	–	AC50 [10]: 134 µM (active)
CCCSC(=N)N/N=C/c1cc(C)ccc1O	46.3 µM (active)	11.4 µM (active)	93.5 µM (active)	–	–	> 100 µM (inactive)	EC50 [11]: 32.5 µM (active); EC50 [12]: 30 µM (active)
CCOc1cc(/C=N/NC(=O)CSc2cccc3cccnc23)ccc1O	–	–	–	–	–	–	IC50 [13]: 7.45 µM (active); IC50 [14]: 34.2 µM (active); AC50 [10]: 90 µM (active)
